Measured values taken from ChEMBL document CHEMBL1909294, “Translating clinical findings into knowledge in drug safety evaluation--drug induced liver injury prediction system (DILIps)” (PLoS Comput Biol, 2011).

System: Hepatotoxicity
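Note: binary label assigned from drug-induced liver injury observed in pharmaceutical company records, forming the validation set for the DILIps prediction system.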

Description: Drug Induced Liver Injury Prediction System (DILIps) validation dataset; compound DILI positive/negative as observed in Pfizer data

Molecule	DILI positive/negative	DILI positive/negative (Liver)
O=c1[nH]c(=O)n([C@H]2C[C@H](O)[C@@H](CO)O2)cc1F [FLOXURIDINE]	1	–
Cn1nnnc1SCC1=C(C(=O)[O-])N2C(=O)[C@@H](NC(=O)[C@H](O)c3ccccc3)[C@H]2SC1.[Na+] [CEFAMANDOLE SODIUM]	1	–
c1ccc2c(c1)Nc1ccccc1S2 [PHENOTHIAZINE]	1	–
CCN1CCN(C(=O)N[C@@H](C(=O)N[C@@H]2C(=O)N3C(C(=O)O)=C(CSc4nnnn4C)CS[C@H]23)c2ccc(O)cc2)C(=O)C1=O.O.O [CEFOPERAZONE DIHYDRATE]	0	–
C[C@H](CCC(=O)O)[C@H]1CC[C@H]2[C@@H]3[C@H](O)C[C@@H]4C[C@H](O)CC[C@]4(C)[C@H]3CC[C@]12C [CHENODIOL]	1	–
C#C[C@]1(OC(C)=O)CC[C@H]2[C@@H]3CCC4=C[C@@H](OC(C)=O)CC[C@@H]4[C@H]3CC[C@@]21C [ETHYNODIOL DIACETATE]	1	–
BISMUTH SUBSALICYLATE	0	–
AUROTHIOGLUCOSE	1	–
CC1(C)S[C@@H]2[C@H](NC(=O)[C@H](NC(=O)N3CCN(S(C)(=O)=O)C3=O)c3ccccc3)C(=O)N2[C@H]1C(=O)[O-].[Na+] [MEZLOCILLIN SODIUM]	–	1
Nc1ccc(C(=O)[O-])cc1.[K+] [AMINOBENZOATE POTASSIUM]	0	–
C#C[C@]1(O)CC[C@H]2[C@@H]3CCc4cc(OC)ccc4[C@H]3CC[C@@]21C [MESTRANOL]	1	–
FERROUS SULFATE	0	–
CN(C)CCC(c1ccc(Br)cc1)c1ccccn1.O=C(O)/C=C\C(=O)O (configuration not stated) [BROMPHENIRAMINE MALEATE]	0	–
Cc1cc(NC(=O)C2=C(O)c3ccccc3S(=O)(=O)N2C)no1 [ISOXICAM]	0	–
N[C@H](C(=O)O)[C@@H]1CC(Cl)=NO1 [ACIVICIN]	0	–
CCN(CC)CCNc1ccc(CO)c2sc3ccccc3c(=O)c12 [HYCANTHONE]	1	–

Molecule	DILI positive/negative	DILI positive/negative (Liver)
CC1CN(c2cc3c(cc2F)c(=O)c(C(=O)O)cn3-c2ccc(F)cc2F)CCN1 (configuration not stated) [TEMAFLOXACIN]	1	–
GALLIUM NITRATE HYDRATE	0	–
C=C1[C@@H]2CCC3[C@@](CC[C@@H]4[C@H](C(=O)O)C[C@@H](O[C@@H]5O[C@H](CO)[C@@H](OS(=O)(=O)[O-])[C@H](OS(=O)(=O)[O-])[C@H]5OC(=O)CC(C)C)C[C@@]34C)(C2)[C@@H]1O.[K+].[K+] (some centres not stated) [ATRACTYLOSIDE]	1	–
CC1(C)[C@@H](OC(=O)CCC(=O)[O-])CC[C@]2(C)[C@H]3C(=O)C=C4[C@@H]5C[C@@](C)(C(=O)[O-])CC[C@]5(C)CC[C@@]4(C)[C@]3(C)CC[C@@H]12.[Na+].[Na+] [CARBENOXOLONE SODIUM]	0	–
CC[C@]1(O)C[C@@H]2CN(CCc3c([nH]c4ccccc34)[C@@](C(=O)OC)(c3cc4c(cc3OC)N(C)[C@H]3[C@@](O)(C(=O)OC)[C@H](OC(C)=O)[C@]5(CC)C=CCN6CC[C@]43[C@@H]65)C2)C1.O=S(=O)(O)O [VINBLASTINE SULFATE]	0	–
Oc1c(Cl)cc(Cl)cc1Sc1cc(Cl)cc(Cl)c1O [BITHIONOL]	1	–
COc1ccc(CCN2CCC(Nc3nc4ccccc4n3Cc3ccc(F)cc3)CC2)cc1 [ASTEMIZOLE]	0	–
C[C@H](CCc1ccccc1)NC[C@H](O)c1ccc(O)c(C(N)=O)c1 [DILEVALOL]	1	–
C=C1c2cccc(O)c2C(=O)C2=C(O)[C@]3(O)C(=O)C(C(N)=O)=C(O)[C@@H](N(C)C)[C@@H]3[C@@H](O)[C@H]12.Cl [METHACYCLINE HYDROCHLORIDE]	1	–
O=S(=O)(O)O.Oc1cccc2cccnc12.Oc1cccc2cccnc12 [OXYQUINOLINE SULFATE]	–	1
Nc1ccc(S(=O)(=O)NC(=O)c2ccccc2)cc1 [SULFABENZAMIDE]	0	–
CC[N+](CC)(CC)CCOc1cccc(OCC[N+](CC)(CC)CC)c1OCC[N+](CC)(CC)CC.[I-].[I-].[I-] [GALLAMINE TRIETHIODIDE]	0	–
Cl.O=C(O)CCCCCCNC1c2ccccc2CCc2ccccc21 [AMINEPTINE HYDROCHLORIDE]	1	–
Cl.Nc1ccc(/N=N/c2ccccc2)c(N)n1 [PHENAZOPYRIDINE HYDROCHLORIDE]	1	–
Cc1c(F)c(N2CCNC(C)C2)cc2c1c(=O)c(C(=O)O)cn2C1CC1 (configuration not stated) [GREPAFLOXACIN]	–	1
CN(C)CCn1nnnc1SCC1=C(C(=O)O)N2C(=O)[C@@H](NC(=O)Cc3csc(N)n3)[C@H]2SC1.Cl.Cl [CEFOTIAM HYDROCHLORIDE]	1	–
